Common to all, as to assay type: biochemical
Assay [1] deals with T1, human JAK3 (a.a. 781-1124) (Homo sapiens, UniProt P52333).
T1 construct: JAK3 (a.a. 781-1124); His tag (N); made in house; host or cells: insect cells (baculovirus)
The experiment in a line: In vitro JAK kinase assay (HTRF, phosphorylation of a biotinylated peptide), JAK3. An outline of the steps: (§1)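 Kinase reactions ran at room temperature for 1 h with ATP matched per isoform (JAK1 90 μM, JAK2 30 μM, JAK3 3 μM). After an EDTA stop, the phosphorylated biotin-peptide was read by HTRF using Eu-Py20 and SA-APC after 40 min binding.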
A general note: TR-FRET usually uses a lanthanide donor and a delayed reading to cut background.

A further assay has as its target TYK2 (Homo sapiens, UniProt P29597). The experiment in a line: TYK2 kinase inhibition (Table A1).
In assay [2] the target is T2, human JAK2 (a.a. 828-1132) (Homo sapiens, UniProt O60674).
T2 construct: JAK2 (a.a. 828-1132); His tag (N); made in house; host or cells: insect cells (baculovirus)
T2 sequence (O60674 828-1132): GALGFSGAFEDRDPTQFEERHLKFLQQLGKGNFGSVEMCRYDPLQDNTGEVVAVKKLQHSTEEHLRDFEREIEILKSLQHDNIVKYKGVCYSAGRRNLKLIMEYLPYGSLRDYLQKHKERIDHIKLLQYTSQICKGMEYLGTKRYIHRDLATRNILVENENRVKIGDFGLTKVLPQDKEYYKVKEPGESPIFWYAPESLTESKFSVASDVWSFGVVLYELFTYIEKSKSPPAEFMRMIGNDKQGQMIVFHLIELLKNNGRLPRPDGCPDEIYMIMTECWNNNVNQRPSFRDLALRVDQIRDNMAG
The assay is described as follows: In vitro JAK kinase assay (HTRF, phosphorylation of a biotinylated peptide), JAK2. An outline of the steps: as §1

In assay [3] the target is T3, Recombinant Human Anaplastic Lymphoma Kinase (Homo sapiens, UniProt Q9UM73).
T3 construct: purchased Invitrogen, Carlsbad, Calif
T3 sequence (Q9UM73 19-1620): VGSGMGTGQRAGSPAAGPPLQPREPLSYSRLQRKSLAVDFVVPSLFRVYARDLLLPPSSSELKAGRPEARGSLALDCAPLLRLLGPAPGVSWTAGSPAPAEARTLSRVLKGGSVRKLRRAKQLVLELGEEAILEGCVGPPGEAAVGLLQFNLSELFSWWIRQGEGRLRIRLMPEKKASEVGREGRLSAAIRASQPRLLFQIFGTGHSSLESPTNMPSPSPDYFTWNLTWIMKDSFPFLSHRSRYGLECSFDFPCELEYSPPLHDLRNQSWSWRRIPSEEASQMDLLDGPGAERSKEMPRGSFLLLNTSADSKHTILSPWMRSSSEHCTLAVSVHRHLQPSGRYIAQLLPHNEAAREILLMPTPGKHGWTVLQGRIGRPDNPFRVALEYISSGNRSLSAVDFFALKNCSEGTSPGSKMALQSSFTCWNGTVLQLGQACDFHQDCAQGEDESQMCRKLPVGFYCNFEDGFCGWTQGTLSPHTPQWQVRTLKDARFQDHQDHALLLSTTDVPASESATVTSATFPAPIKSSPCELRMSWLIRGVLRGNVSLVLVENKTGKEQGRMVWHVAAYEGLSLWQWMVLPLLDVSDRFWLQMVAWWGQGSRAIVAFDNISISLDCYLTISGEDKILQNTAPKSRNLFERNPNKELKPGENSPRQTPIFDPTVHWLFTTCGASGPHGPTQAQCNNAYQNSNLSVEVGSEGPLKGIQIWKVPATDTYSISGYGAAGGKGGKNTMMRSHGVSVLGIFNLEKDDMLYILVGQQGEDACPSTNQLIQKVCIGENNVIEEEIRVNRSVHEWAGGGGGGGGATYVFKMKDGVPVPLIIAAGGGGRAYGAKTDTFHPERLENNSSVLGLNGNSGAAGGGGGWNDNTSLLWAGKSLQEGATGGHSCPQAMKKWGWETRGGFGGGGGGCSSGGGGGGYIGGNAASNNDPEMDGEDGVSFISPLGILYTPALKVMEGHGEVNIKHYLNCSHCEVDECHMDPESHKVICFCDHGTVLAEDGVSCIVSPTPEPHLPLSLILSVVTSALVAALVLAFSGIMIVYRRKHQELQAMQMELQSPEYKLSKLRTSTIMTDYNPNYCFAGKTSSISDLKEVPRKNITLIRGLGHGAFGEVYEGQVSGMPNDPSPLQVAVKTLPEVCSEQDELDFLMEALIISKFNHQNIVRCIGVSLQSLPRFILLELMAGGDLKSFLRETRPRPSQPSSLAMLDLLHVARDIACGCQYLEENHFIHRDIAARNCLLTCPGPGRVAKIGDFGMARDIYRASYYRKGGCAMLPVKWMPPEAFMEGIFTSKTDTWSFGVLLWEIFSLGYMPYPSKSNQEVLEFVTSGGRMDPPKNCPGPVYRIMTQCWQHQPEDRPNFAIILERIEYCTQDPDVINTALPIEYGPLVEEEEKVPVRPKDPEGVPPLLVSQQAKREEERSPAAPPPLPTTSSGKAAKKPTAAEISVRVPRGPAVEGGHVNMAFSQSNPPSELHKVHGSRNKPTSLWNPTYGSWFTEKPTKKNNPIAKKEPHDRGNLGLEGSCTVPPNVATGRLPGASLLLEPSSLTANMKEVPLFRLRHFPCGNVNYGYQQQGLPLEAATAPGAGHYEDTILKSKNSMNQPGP
The experiment in a line: ALK HTRF kinase assay. Summed up:
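Compounds were incubated with recombinant human ALK and a biotin-tagged peptide substrate. Product was captured with streptavidin-APC and probed with a europium anti-phosphotyrosine antibody, and plates were read for time-resolved fluorescence. Dose-response data were fitted to derive IC50.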

Assay [4] addresses T4, human JAK1 (a.a. 837-1142) (Homo sapiens, UniProt P23458).
T4 construct: human JAK1 (a.a. 837-1142); His tag (N); made in house; host or cells: insect cells (baculovirus)
The assay is described as follows: In vitro JAK kinase assay (HTRF, phosphorylation of a biotinylated peptide), JAK1. Particulars: read-out: JAK1 IC50. An outline of the steps:
as §1

The mark [5] stands for this setting: method AA1 (3 μM ATP) or AA2 (1000 μM ATP), not stated per value.
Where [6] appears, read: method AA1 (30 μM ATP) or AA2 (1000 μM ATP), not stated per value.
Setting [7] is: compound at 500 nM or 1 mM, 90 μM ATP.
Where [8] appears, read: method AA1 (90 μM ATP) or AA2 (1000 μM ATP), not stated per value.
[9] abbreviates: compound at a concentration of 500 nM or 1 mM (not specified), cells shown as percentage.
Where [10] appears, read: percentage inhibition of the example compound at a concentration of 500 nM or 1 mM (not specified which).
Where [11] appears, read: Table B1, cells without percent sign.

SMILES strings stand for the structures. Counter-ions that a name gives are not always drawn. Like-named read-outs stand apart in the source and are kept apart here.

Usually IC50 stands for the concentration that gives 50% inhibition.

Sequence of TYK2 (P29597 whole entry): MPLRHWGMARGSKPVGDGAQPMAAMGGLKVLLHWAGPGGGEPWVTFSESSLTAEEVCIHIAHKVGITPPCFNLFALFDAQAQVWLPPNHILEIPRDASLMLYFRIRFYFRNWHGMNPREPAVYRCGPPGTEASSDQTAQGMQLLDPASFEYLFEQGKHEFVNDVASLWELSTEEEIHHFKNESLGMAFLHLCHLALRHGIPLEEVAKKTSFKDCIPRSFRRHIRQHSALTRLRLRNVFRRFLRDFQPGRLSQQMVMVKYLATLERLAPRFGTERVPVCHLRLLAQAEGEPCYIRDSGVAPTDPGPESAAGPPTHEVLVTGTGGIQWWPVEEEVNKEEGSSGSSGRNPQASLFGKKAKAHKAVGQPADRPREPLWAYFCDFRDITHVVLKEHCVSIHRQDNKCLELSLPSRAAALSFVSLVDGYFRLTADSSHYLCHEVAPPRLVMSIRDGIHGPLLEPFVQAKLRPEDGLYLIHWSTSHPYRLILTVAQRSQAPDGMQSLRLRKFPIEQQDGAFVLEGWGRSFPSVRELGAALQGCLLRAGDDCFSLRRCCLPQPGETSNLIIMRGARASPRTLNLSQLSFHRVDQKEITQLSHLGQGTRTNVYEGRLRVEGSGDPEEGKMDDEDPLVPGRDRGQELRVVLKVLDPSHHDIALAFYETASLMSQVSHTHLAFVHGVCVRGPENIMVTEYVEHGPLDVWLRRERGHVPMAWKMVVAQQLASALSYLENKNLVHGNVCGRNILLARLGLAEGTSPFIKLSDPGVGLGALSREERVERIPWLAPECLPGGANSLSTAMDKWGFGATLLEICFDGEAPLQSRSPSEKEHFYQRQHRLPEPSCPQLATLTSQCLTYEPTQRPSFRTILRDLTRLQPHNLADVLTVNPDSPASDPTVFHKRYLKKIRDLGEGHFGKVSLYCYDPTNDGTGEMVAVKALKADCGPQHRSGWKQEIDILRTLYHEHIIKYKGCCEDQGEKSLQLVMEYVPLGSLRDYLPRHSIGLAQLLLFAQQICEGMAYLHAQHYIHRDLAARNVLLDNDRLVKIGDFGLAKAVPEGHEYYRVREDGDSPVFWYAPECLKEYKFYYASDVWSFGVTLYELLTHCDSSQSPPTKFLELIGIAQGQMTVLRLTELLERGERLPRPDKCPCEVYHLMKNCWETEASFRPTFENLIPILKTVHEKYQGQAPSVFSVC
T4 sequence (P23458 849-1154): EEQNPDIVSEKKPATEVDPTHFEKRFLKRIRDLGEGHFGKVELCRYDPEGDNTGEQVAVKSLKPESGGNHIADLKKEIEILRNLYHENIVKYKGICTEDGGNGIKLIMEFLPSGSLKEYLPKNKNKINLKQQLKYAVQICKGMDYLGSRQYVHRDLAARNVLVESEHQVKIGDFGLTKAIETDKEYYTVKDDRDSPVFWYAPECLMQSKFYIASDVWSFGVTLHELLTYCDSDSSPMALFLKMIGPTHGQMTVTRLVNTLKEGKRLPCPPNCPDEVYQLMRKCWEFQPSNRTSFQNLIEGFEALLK
T1 sequence (P52333 781-1124): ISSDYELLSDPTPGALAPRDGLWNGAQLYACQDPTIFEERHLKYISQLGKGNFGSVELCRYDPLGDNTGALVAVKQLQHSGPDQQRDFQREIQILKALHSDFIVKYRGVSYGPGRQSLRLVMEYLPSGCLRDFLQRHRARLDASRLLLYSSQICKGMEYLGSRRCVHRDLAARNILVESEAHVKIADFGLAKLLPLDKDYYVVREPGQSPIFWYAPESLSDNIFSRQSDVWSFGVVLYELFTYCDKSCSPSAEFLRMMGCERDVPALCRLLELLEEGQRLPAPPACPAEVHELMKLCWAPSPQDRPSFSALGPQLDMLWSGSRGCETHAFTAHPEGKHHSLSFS

On to `Cc1oncc1C(=O)N1CCC(CC(=O)Nc2ccc3cc2CCc2cncc(c2)Nc2ncc(Cl)c(n2)N3)CC1` [Example A131, N-[6-Chloro-2,4,8,18,22-pentaazatetracyclo[14.3.1.1(3,7).1(9,13)]docosa-1(20),3(22),4,6,9(21),10,12,16,18-nonaen-12-yl]-2-{1-[(5-methylisoxazol-4-yl)carbonyl]piperidin-4-yl}acetamide bis(trifluoroacetate)], for which the IC50 in assay [1] (setting [5]) worked out at 225 nM; against TYK2, 45 nM; in assay [2] (setting [6]), 36 nM; in assay [4] (setting [8]), 6.6 nM. Also, the “ALK % of inhibition at a concentration of 500 nM or 1 mM” value (shortened to “ALK % of inhibition”) in assay [3] (setting [7]) was 20%.
For the compound `CC(C)(C)OC(=O)N1CCN(CCNC(=O)Nc2ccc3cc2CCc2cccc(c2)Nc2ncc(Cl)c(n2)N3)CC1` [Example B259, tert-Butyl 4-{2-[({[6-chloro-2,4,8,22-tetraazatetracyclo[14.3.1.1(3,7).1(9,13)]docosa-1(20),3(22),4,6,9(21),10,12,16,18-nonaen-12-yl]amino}carbonyl)amino]ethyl}piperazine-1-carboxylate], the IC50 in assay [1] (Table B1) was found to be 52 nM; on TYK2 (Table B1), 23 nM; in assay [2] (Table B1), 7 nM; in assay [4] (Table B1) it was 3.8 nM. Moreover, the “ALK % of inhibition” value in assay [3] (setting [9]) came out at 13%.
For the compound `O=C(CC1CCN(c2nc3cccnc3o2)CC1)Nc1ccc2cc1CCc1cncc(c1)Nc1ncc(Cl)c(n1)N2` [Example A158, N-[6-Chloro-2,4,8,18,22-pentaazatetracyclo[14.3.1.1(3,7).1(9,13)]docosa-1(20),3(22),4,6,9(21),10,12,16,18-nonaen-12-yl]-2-(1-[1,3]oxazolo[5,4-b]pyridin-2-ylpiperidin-4-yl)acetamide tris(trifluoroacetate)], the IC50 in assay [1] (setting [5]) was over 10000 nM; against TYK2, 675 nM; in assay [2] (setting [6]), 244 nM; in assay [4] (setting [8]), 11 nM. Moreover, the “ALK % of inhibition” value in assay [3] (setting [7]) stood at 18%.
Consider `CS(=O)(=O)N1CCN(c2ccc(-c3cc4cc(c3)Nc3ncc(Cl)c(n3)Nc3cccc(c3)OCC4)cn2)CC1` [Example D38, 6-Chloro-19-{6-[4-(methylsulfonyl)piperazin-1-yl]pyridin-3-yl}-14-oxa-2,4,8,23-tetraazatetracyclo[15.3.1.1(3,7).1(9,13)]tricosa-1(21),3(23),4,6,9(22),10,12,17,19-nonaene bis(trifluoroacetate)], for which the IC50 came to 19 nM in assay [1] (Table D1); 4 nM at TYK2 (Table D1); 0.9 nM in assay [2] (Table D1); 442 nM in assay [3] (Table D1, 90 μM ATP); 1.1 nM in assay [4] (Table D1).
For the compound `Cc1ccccc1NC(=O)N1CCC(CC(=O)Nc2ccc3cc2CCc2cncc(c2)Nc2ncc(Cl)c(n2)N3)CC1` [Example A149, 4-(2-{[6-Chloro-2,4,8,18,22-pentaazatetracyclo[14.3.1.1(3,7).1(9,13)]docosa-1(20),3(22),4,6,9(21),10,12,16,18-nonaen-12-yl]amino}-2-oxoethyl)-N-(2-methylphenyl)piperidine-1-carboxamide bis(trifluoroacetate)], the IC50 in assay [1] (setting [5]) was over 100 nM; against TYK2, 6.9 nM; in assay [2] (setting [6]), 3.1 nM; in assay [4] (setting [8]) it was 0.5 nM. Further, the “ALK % of inhibition” value in assay [3] (setting [7]) came to 35%.
For `O=S(=O)(Nc1ccc2cc1CCc1cccc(c1)Nc1ncc(Cl)c(n1)N2)c1cccc2cccnc12` [Example B160, N-[6-Chloro-2,4,8,22-tetraazatetracyclo[14.3.1.1(3,7).1(9,13)]docosa-1(20), 3(22),4,6,9(21),10,12,16,18-nonaen-12-yl]quinoline-8-sulfonamide bis(trifluoroacetate)], the IC50 in assay [1] (Table B1) was 102 nM; on TYK2 (Table B1) it was 2.4 nM; in assay [2] (Table B1), 6.4 nM; in assay [4] (Table B1), 12 nM. For the same compound, the “ALK % of inhibition” value in assay [3] (setting [9]) is 4.6%.
As to `Clc1cnc2nc1Nc1ccc(-c3cn[nH]c3)c(c1)CCc1cncc(c1)N2` [Example B350, 6-Chloro-12-(1H-pyrazol-4-yl)-2,4,8,18,22-pentaazatetracyclo[14.3.1.1(3,7).1(9,13)]docosa-1(20),3(22),4,6,9(21),10,12,16,18-nonaene tris(trifluoroacetate)], the IC50 in assay [1] (Table B1) is over 400 nM; at TYK2 (Table B1), 244 nM; in assay [2] (Table B1), 66 nM; in assay [4] (Table B1), 90 nM. Also, the “ALK % of inhibition” value in assay [3] (setting [10]) was found to be 58%.
With `Cc1cc(N2CCC(CC(=O)Nc3ccc4cc3CCc3cccc(c3)Nc3ncc(Cl)c(n3)N4)CC2)no1` [Example A248, N-[6-Chloro-2,4,8,22-tetraazatetracyclo[14.3.1.1(3,7).1(9,13)]docosa-1(20),3(22),4,6,9(21),10,12,16,18-nonaen-12-yl]-2-[1-(5-methylisoxazol-3-yl)piperidin-4-yl]acetamide trifluoroacetate], the IC50 was over 200 nM in assay [1] (setting [5]), 82 nM at TYK2, 30 nM in assay [2] (setting [6]) and 8.7 nM in assay [4] (setting [8]). Besides, in assay [3] (setting [7]), the “ALK % of inhibition” value is on record as 50%.
As to `O=C(Nc1ccc2cc1CCc1cccc(c1)Nc1ncc(Cl)c(n1)N2)c1ccncc1` [Example B39, N-[6-Chloro-2,4,8,22-tetraazatetracyclo[14.3.1.1(3,7).1(9,13)]docosa-1(20), 3(22),4,6,9(21),10,12,16,18-nonaen-12-yl]isonicotinamide bis(trifluoroacetate)], the IC50 in assay [1] (Table B1) worked out at 2.7 nM; against TYK2 (Table B1), 0.66 nM; in assay [2] (Table B1) it was 0.12 nM; in assay [3] (setting [11]) it was 86 nM; in assay [4] (Table B1), 0.2 nM.
For the compound `COc1cccc(CN2CCN(Cc3cc4cc(c3)Nc3nc(ncc3Cl)Nc3cccc(c3)CC4)CC2)c1` [Example B198, 6-Chloro-11-{[4-(3-methoxybenzyl)piperazin-1-yl]methyl}-2,4,8,22-tetraazatetracyclo[14.3.1.1(3,7).1(9,13)]docosa-1(20),3(22),4,6,9(21),10,12,16,18-nonaene tris(trifluoroacetate)], the IC50 in assay [1] (Table B1) was 161 nM; against TYK2 (Table B1) it was 289 nM; in assay [2] (Table B1) it was 10 nM; in assay [3] (setting [11]), over 10000 nM; in assay [4] (Table B1), 39 nM.
For the compound `O=C(CC1CCN(c2ccncc2F)CC1)Nc1ccc2cc1CCc1cncc(c1)Nc1ncc(Cl)c(n1)N2` [Example A243, N-[6-Chloro-2,4,8,18,22-pentaazatetracyclo[14.3.1.1(3,7).1(9,13)]docosa-1(20),3(22),4,6,9(21),10,12,16,18-nonaen-12-yl]-2-[1-(3-fluoropyridin-4-yl)piperidin-4-yl]acetamide tris(trifluoroacetate)], the IC50 in assay [1] (setting [5]) is over 400 nM; on TYK2, 235 nM; in assay [2] (setting [6]), 119 nM; in assay [4] (setting [8]), 20 nM. Also, the “ALK % of inhibition” value in assay [3] (setting [7]) came to 38%.
Turning to `O=C(NCCNS(=O)(=O)C1CC1)Nc1ccc2cc1CCc1cccc(c1)Nc1ncc(Cl)c(n1)N2` [Example B327, N-{2-[({[6-Chloro-2,4,8,22-tetraazatetracyclo[14.3.1.1(3,7).1(9,13)]docosa-1(20),3(22),4,6,9(21),10,12,16,18-nonaen-12-yl]amino}carbonyl)amino]ethyl}cyclopropanesulfonamide trifluoroacetate], the IC50 is 4.2 nM in assay [1] (Table B1), 5 nM at TYK2 (Table B1), 1.8 nM in assay [2] (Table B1) and 2 nM in assay [4] (Table B1). The “ALK % of inhibition” value in assay [3] (setting [10]) is on record as 19%.

(Values after patent publication US8871753B2, “Macrocyclic compounds and their use as kinase inhibitors” (Incyte Corporation, priority 2008, dated 2014).)
